The supplement of paper PMC10307832

Tests used:
Assay in all cases: relative viability (nuclei count vs DMSO), 5 days (fraction); higher = more cells survive
Ispinesib + Alpelisib = compound: Cc1ccc(C(=O)N(CCCN)[C@@H](c2nc3cc(Cl)ccc3c(=O)n2Cc2ccccc2)C(C)C)cc1 [Ispinesib] + Cc1nc(NC(=O)N2CCC[C@H]2C(N)=O)sc1-c1ccnc(C(C)(C)C(F)(F)F)c1 [Alpelisib] (partner 2 µM)
Outline: (§1)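 Relative viability divides the nuclei count in treated wells by that in vehicle wells. Lung cancer cell lines were seeded in 1536-well plates, dosed by pin tool the next day, and fixed and stained after 5 days in one step with final 0.05% Triton X-100, 1% formaldehyde and 1 ug/ml Hoechst. Dosing was a single drug or a fixed anchor-drug dose plus five library-drug doses (not always all listed) in √10 steps, and values are medians of duplicate plates imaged at 4×.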

Linsitinib + OSI-027 = compound: C[C@]1(O)C[C@@H](c2nc(-c3ccc4ccc(-c5ccccc5)nc4c3)c3c(N)nccn32)C1 [Linsitinib] + COc1cccc2cc(-c3nc([C@H]4CC[C@H](C(=O)O)CC4)n4ncnc(N)c34)[nH]c12 [OSI-027] (partner 0.5 µM)
Outline: as §1

Ispinesib + Bortezomib = compound: Cc1ccc(C(=O)N(CCCN)[C@@H](c2nc3cc(Cl)ccc3c(=O)n2Cc2ccccc2)C(C)C)cc1 [Ispinesib] + CC(C)C[C@H](NC(=O)[C@H](Cc1ccccc1)NC(=O)c1cnccn1)B(O)O [Bortezomib] (partner 0.002 µM)
Outline: as §1

Linsitinib + Luminespib = compound: C[C@]1(O)C[C@@H](c2nc(-c3ccc4ccc(-c5ccccc5)nc4c3)c3c(N)nccn32)C1 [Linsitinib] + CCNC(=O)c1noc(-c2cc(C(C)C)c(O)cc2O)c1-c1ccc(CN2CCOCC2)cc1 [Luminespib] (partner 0.01 µM)
Outline: as §1

Question: What does the source list for UMC-11?
Answer: relative viability (Ispinesib + Alpelisib; first compound 0.001 µM): 0.944; relative viability (Ispinesib + Alpelisib; first compound 0.003162 µM): 1.09; relative viability (Ispinesib + Alpelisib; first compound 0.01 µM): 0.99; relative viability (Ispinesib + Alpelisib; first compound 0.03162 µM): 0.351; relative viability (Ispinesib + Alpelisib; first compound 0.1 µM): 0.282; relative viability (Linsitinib + OSI-027; first compound 0.01 µM): 0.468; relative viability (Linsitinib + OSI-027; first compound 0.03162 µM): 0.433; relative viability (Linsitinib + OSI-027; first compound 0.1 µM): 0.552; relative viability (Linsitinib + OSI-027; first compound 1 µM): 0.432; relative viability (Ispinesib + Bortezomib; first compound 0.001 µM): 0.505; relative viability (Ispinesib + Bortezomib; first compound 0.003162 µM): 0.72; relative viability (Ispinesib + Bortezomib; first compound 0.01 µM): 0.657; relative viability (Ispinesib + Bortezomib; first compound 0.03162 µM): 0.207; relative viability (Ispinesib + Bortezomib; first compound 0.1 µM): 0.183; relative viability (Linsitinib + Luminespib; first compound 0.01 µM): 1.04; relative viability (Linsitinib + Luminespib; first compound 0.03162 µM): 0.717; relative viability (Linsitinib + Luminespib; first compound 0.1 µM): 0.992; relative viability (Linsitinib + Luminespib; first compound 1 µM): 1.02
